{
  "source": "patent US8168199B2",
  "about": "“Dipeptidyl peptidase IV inhibitors for the treatment of schizophrenia and depression” (priority 2000, dated 2012)",
  "tested_on": "Male WistarF/Han (WF) rats",
  "assay": "1 h and 12 h food-intake after i.c.v. P32/98 and NPY (Example 3)",
  "assay_type": "in vivo, rat",
  "description": "Animals. Male WistarF/Han (WF) rats (Central Animal Laboratory, Hannover Medical School, Hannover, Germany, weighing 330-370 g, were housed in a sound-proof, temperature controlled (24.0±0.5° C.) room under specific pathogen free conditions with a 12/12 h dark/light cycle (lights on at 07.00 with illumination level of 80 Lux). Food (Altromin lab chow pellets) and tap water were available ad libitum. Under ketamine/xylasine (100/5 mg/kg, i.p.) anesthesia, the rats were fixed in a Kopf stereotaxic frame and implanted with cannulae (Plastic One, Inc., Roanoke, Va., USA) above the lateral ventricle. All research and animal care procedures were approved by the Lower Saxony district government (Hannover, Germany) and followed principles described in the European Community's Council Directive of 24 Nov. 1986 (86/609/EEC).\nSurgery and i.c.v. application. For surgery, rats were anesthetized and prepared with i.c.v. cannulae (coordinates: A: −0.7 mm caudal, L: 1.4 mm lateral to bregma; and V3.2 mm ventral to the skull surface; tooth bar +3.0 above ear bars) using standard stereotaxic procedures as described in detail elsewhere (von Hörsten et al., 1998a, b, c). After a 7-day recovery period, successful ventricle cannulation was confirmed by an angiotensin drinking response (von Hörsten et al., 1998a). Rats showing a positive drinking response (n=59) were then habituated to experimental handling by daily sham injections for seven days.\nAnimals were randomly divided into two sets of four experimental groups (n=5-6/group), which completed different consecutive SI test of anxiety. […] The time spent in active social interaction (SI-time), 1 h and 12 h food-intake were measured. […]\nStatistical analysis. Data from repeated observations (food intake) were analyzed by two-way analyses of variance for repeated measures (ANOVA) (factors: “substrain” and “food intake” as repeated measure). Data obtained from simple measures such as DPIV activity or SI time were analyzed by one-way (factor: “substrain”) ANOVA. […]",
  "data": [
    {"smiles": "CC[C@H](C)[C@H](N)C(=O)N1CCSC1", "note": "[P32/98]", "values": [
      {"measurement": "dose at which the 1 h feeding effect reached significance", "setting": "i.c.v.", "result": 0.05, "unit": "nmol"},
      {"measurement": "amount of food eaten within 1 h", "setting": "i.c.v. P32/98 5 pmol-500 nmol, NPY 50 pmol-1.6 nmol, dark cycle", "result": "mild feeding effect"}
    ]}
  ]
}
